Here are results for 14 molecules from patent US9670231B2, “Fused tricyclic amide compounds as multiple kinase inhibitors” (BEIGENE, LTD., priority 2013, dated 2017).

Format in all cases: biochemical
The target in one test is B-Raf (V600E) (Homo sapiens (Human), UniProt P15056, V600E). As to the kind of experiment: Raf IC50 assay, TR-FRET, B-Raf (V600E). The following applies: 0.1 mM ATP; read-out: IC50 BRAF-V600E. The protocol:
The enzyme was incubated with the compounds disclosed herein at room temperature for 60 minutes and the reactions were initiated by the addition of ATP and GST-MEK1. After reaction at room temperature for 60 minutes, an equal volume of stop/detection solution was added according to the manufacture's instruction (CisBio Bioassays). […] The IC50 for each compound was derived from fitting the dose-response % inhibition data to the four-parameter logistic model by Graphpad Prism software.

Another test addresses C-Raf (Y340D/Y341D) (Homo sapiens (Human), UniProt P04049, Y340D/Y341D). As to the kind of experiment: Raf IC50 assay, TR-FRET, C-Raf (Y340D/Y341D). The note with it: 0.1 mM ATP. As to the method:
Compounds disclosed herein were tested against B-Raf (V600E) (PV3849, from Invitrogen) or C-Raf (Y340D/Y341D) (PV3805, from Invitrogen) in a time-resolved fluorescence energy transfer assay. The assay was carried out in reactions (10 μL) containing 0.0625 nM B-Raf or 0.5 nM C-Raf, 25 mM Tris pH7.4, 10 mM MgCl2, 0.5 mM EGTA, 0.5 mM Na3VO4, 5 mM beta-glycerophosphate, 0.01% Triton X-100, 2.5 mM DTT, 0.1% BSA, 0.1 mM ATP, 13.7 nM GST-tagged MEK1 (Full-length protein with K97R mutation, recombinant protein purified from bacterial expression system) and 0-5 μM compounds disclosed herein (final concentration of 1% DMSO). The enzyme was incubated with the compounds disclosed herein at room temperature for 60 minutes and the reactions were initiated by the addition of ATP and GST-MEK1. After reaction at room temperature for 60 minutes, an equal volume of stop/detection solution was added according to the manufacture's instruction (CisBio Bioassays). The stop/detection solution contained Eu^3+ cryptate-conjugated anti-phospho MEK1/2 (Ser217/221) rabbit polyclonal antibody and d2-conjugated anti-GST mouse monoclonal antibody in buffer containing 25 mM Tris pH7.4, 400 mM KF, 50 mM EDTA, 0.01% BSA and 0.01% Triton X-100. Plates were sealed and incubated at room temperature for 2 hours, and the TR-FRET signals (ratio of fluorescence emission at 665 nm over emission at 620 nm with excitation at 337 nm wavelength) were recorded on a PHERAstar FS plate reader (BMG Labtech). Phosphorylation of MEK1 led to the binding of anti-phospho-MEK1/2 antibody to GST-MEK1 protein that place fluorescent donor (Eu^3+ crypate) in close proximity to the accepter d2 on the anti-GST antibody, thus resulting in a high degree of fluorescence resonance energy transfer from the donor fluorophore (at 620 nm) to the acceptor fluorophore (at 665 nm). […] The IC50 for each compound was derived from fitting the dose-response % inhibition data to the four-parameter logistic model by Graphpad Prism software.

Another test deals with wild type B-Raf (Homo sapiens (Human), UniProt P15056). The test is described as follows: WT BRaf IC50 assay, TR-FRET. More on the design: Braf-WT Km ATP, % at 100 nM: scale not given here. The note with it: for Braf-WT Km ATP, % at 100 nM: at 100 nM compound. As to the method:
WT BRaf IC50 Assay Protocol
Compounds disclosed herein were tested against wild type B-Raf (PV3848, from Invitrogen) in a time-resolved fluorescence energy transfer assay. […] The enzyme was incubated with the compounds disclosed herein at room temperature for 120 minutes and the reactions were initiated by the addition of ATP and GST-MEK1. After incubating at room temperature for 60 minutes, an equal volume of stop buffer containing 25 mM Tris pH7.4, 400 mM KF, 50 mM EDTA, 0.1% BSA, 0.01% Triton X-100, 1 test of Eu3+Cryptate-conjugated rabbit polyclonal antibody anti-Phospho MEK1/2 (Ser217/221) and 1 test of d2-conjugated mouse monoclonal antibody anti-glutathione S-transferase was added to stop the reactions. Plates were sealed and incubated at room temperature for 1.5 hours, and then the TR-FRET signals were read on BMG PHERAstar FS instrument. The IC50 for each compound was calculated by non linear regression by Graphpad Prism software.
A general note: Time-resolved FRET reads energy transfer from a long-lived donor to a nearby acceptor.

The target in the next test is WT EGFR kinase domain (Homo sapiens (Human), UniProt P00533). As to the kind of experiment: EGFR enzymatic assay, TR-FRET, WT EGFR. As to the method: (§1) Compounds disclosed herein were tested against WT EGFR kinase domain (aa.669-1210, Carna Biosciences, 08-115), EGFR T790M/L858R kinase domain (aa.669-1210, Carna Biosciences, 08-510) and EGFR L858R kinase domain (aa.669-1210, Carna Biosciences, 08-502) in assays based on time-resolved fluorescence-resonance energy transfer methodology. The assay was carried out in 384-well low volume black plate in a reaction mixture containing EGFR kinases, 20 LM for EGFR WT and T790M/L858R, and 125 LM for EGFR L858R), biotin-TK substrate and 0-5 LM compounds in buffer containing 50 mM HEPES pH7.5, 10 mM MgCl2, 1 mM EGTA, 0.01% Brij-35, 2.5 mM DTT, 0.1% BSA. The kinase was incubated with the compounds disclosed herein at room temperature for 120 minutes and the reaction was initiated by the addition of ATP and biotin-TK substrate. After reaction at room temperature for 30 minutes, an equal volume of stop/detection solution was added according to the manufacture's instruction (CisBio Bioassays). The stop/detection solution contained TK-Antibody-Cryptate and Streptavidin-XL665 in buffer containing 25 mM Tris pH7.4, 400 mM KF, 50 mM EDTA, 0.01% BSA, 0.01% Triton X-100. Plates were sealed and incubated at room temperature for 1 hour, and the TR-FRET signals were read on BMG PHERAstar FS instrument. The IC50 of an inhibitor was derived from fitting the % inhibition data at each compound concentration to the four-parameter logistic equation by Graphpad Prism software.

The target of the next test is EGFR L858R kinase domain (Homo sapiens (Human), UniProt P00533, L858R). The test is described as follows: EGFR enzymatic assay, TR-FRET, EGFR L858R. The protocol: as §1
Test [1] has as its target EGFR T790M/L858R kinase domain (Homo sapiens (Human), UniProt P00533, L858R/T790M). As to the kind of experiment: EGFR enzymatic assay, TR-FRET, EGFR T790M/L858R. The protocol: as §1
Setting [2] is: Km ATP ([…] ATP), read-out: IC50 Braf-WT Km ATP.

Where two headings read alike, the source gives them in different places. A value given as a limit tells only on which side of the number the result lay.

Chain of C-Raf (Y340D/Y341D) (P04049 whole entry Y340D/Y341D): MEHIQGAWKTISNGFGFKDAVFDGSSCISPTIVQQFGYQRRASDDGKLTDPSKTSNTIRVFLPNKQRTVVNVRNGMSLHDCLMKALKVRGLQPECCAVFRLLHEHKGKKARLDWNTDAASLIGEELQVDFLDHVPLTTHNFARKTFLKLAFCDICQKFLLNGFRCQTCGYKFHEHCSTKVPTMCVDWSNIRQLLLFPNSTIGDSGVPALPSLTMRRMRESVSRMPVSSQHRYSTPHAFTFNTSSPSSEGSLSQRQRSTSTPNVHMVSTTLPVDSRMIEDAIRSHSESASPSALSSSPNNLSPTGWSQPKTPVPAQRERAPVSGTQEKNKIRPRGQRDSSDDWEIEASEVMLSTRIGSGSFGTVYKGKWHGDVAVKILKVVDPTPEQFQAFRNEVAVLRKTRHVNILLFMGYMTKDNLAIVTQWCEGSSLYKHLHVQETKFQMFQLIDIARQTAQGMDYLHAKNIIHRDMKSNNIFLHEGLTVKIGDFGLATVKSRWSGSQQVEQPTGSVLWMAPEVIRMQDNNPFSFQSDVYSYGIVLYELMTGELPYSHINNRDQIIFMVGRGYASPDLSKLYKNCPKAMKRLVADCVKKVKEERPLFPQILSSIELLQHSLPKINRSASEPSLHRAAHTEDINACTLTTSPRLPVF
Chain of WT EGFR kinase domain (P00533 669-1210): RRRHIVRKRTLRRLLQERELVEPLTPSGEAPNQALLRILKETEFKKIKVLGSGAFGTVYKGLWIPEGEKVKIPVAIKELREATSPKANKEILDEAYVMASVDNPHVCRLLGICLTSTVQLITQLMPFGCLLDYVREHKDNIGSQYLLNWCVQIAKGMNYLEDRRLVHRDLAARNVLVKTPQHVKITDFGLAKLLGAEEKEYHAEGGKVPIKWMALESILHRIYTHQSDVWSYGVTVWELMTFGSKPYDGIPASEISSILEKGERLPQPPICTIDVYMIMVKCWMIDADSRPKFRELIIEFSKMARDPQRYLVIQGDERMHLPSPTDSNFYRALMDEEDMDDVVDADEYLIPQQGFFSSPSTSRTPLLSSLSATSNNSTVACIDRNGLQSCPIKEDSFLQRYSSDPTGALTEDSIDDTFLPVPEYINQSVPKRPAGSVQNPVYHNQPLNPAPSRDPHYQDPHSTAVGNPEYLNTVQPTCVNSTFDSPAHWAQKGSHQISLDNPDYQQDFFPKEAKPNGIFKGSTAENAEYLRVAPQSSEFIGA
Chain of B-Raf (V600E) (P15056 whole entry V600E): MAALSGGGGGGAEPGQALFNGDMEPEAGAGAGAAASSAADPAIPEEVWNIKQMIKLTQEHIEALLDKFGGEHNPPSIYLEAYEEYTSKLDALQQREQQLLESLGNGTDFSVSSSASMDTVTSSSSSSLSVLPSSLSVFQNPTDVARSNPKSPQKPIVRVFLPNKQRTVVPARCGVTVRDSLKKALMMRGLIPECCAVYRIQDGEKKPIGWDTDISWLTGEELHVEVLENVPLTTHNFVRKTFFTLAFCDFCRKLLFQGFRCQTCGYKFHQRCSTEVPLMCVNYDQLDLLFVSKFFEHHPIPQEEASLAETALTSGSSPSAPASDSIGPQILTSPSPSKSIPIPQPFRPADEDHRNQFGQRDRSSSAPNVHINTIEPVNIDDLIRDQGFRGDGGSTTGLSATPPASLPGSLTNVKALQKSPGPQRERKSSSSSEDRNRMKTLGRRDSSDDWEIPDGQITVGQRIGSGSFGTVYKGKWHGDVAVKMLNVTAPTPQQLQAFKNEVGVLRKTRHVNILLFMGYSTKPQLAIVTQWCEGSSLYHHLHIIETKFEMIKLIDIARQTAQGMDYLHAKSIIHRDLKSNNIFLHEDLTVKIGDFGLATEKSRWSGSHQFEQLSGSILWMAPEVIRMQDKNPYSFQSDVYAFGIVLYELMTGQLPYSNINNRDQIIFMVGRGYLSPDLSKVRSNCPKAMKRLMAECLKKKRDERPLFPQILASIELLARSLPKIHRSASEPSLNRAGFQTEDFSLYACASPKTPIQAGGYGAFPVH
Chain of EGFR T790M/L858R kinase domain (P00533 669-1210 T790M/L858R): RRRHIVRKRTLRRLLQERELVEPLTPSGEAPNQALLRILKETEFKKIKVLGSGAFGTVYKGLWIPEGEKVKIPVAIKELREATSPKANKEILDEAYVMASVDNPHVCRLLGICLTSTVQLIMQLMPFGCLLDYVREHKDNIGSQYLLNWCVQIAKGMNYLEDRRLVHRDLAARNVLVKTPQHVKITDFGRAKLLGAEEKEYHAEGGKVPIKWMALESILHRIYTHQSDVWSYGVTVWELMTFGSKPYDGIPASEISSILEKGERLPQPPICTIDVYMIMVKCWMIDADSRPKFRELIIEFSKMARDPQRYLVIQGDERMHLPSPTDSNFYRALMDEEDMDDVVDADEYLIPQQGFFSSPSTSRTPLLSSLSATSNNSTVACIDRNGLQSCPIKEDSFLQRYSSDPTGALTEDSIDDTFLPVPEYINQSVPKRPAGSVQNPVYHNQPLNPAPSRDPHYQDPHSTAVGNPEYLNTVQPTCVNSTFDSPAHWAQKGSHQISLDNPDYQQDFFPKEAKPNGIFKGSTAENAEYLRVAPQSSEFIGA
Chain of wild type B-Raf (P15056 whole entry): as the sequence (P15056 whole entry V600E) above, with E600V counted along it
Chain of EGFR L858R kinase domain (P00533 669-1210 L858R): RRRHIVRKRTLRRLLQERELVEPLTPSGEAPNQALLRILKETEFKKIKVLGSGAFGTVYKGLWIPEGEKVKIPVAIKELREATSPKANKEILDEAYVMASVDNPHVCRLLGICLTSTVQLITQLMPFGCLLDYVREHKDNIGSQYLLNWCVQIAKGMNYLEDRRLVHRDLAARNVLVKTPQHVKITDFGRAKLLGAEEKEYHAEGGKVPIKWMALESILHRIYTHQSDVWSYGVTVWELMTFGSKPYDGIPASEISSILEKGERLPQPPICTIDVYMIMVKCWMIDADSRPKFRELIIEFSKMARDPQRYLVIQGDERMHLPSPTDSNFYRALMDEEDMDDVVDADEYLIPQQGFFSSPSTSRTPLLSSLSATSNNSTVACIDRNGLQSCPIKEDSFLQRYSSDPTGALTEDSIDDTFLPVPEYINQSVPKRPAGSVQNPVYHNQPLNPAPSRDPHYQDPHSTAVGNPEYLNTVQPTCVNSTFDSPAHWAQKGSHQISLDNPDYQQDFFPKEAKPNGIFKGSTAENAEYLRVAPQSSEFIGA

As usually defined, the IC50 is the concentration that gives 50% inhibition. Regarding `CCN1CCN(Cc2ccc(C(=O)N[C@@H]3[C@H]4Oc5ccc(Oc6ccnc7c6CCC(=O)N7)cc5[C@@H]34)cc2C(F)(F)F)CC1` [Compound 1.1, 4-((4-ethylpiperazin-1-yl)methyl)-N-((1S,1aS,6bS)-5-((7-oxo-5,6,7,8-tetrahydro-1,8-naphthyridin-4-yl)oxy)-1a,6b-dihydro-1H-cyclopropa[b]benzofuran-1-yl)-3-(trifluoromethyl)benzamide], the IC50 on B-Raf (V600E) came out at 5.3 nM; on C-Raf (Y340D/Y341D), 0.94 nM; on wild type B-Raf (IC50 Braf-WT […] ATP, […] ATP) it was 27 nM; at wild type B-Raf (setting [2]) it was 9.5 nM; against WT EGFR kinase domain it was 0.5 nM; on EGFR L858R kinase domain, 0.11 nM. The molecule further returned an IC50 in test [1] of 0.1 nM.
Regarding `O=C1CCc2c(Oc3ccc4c(c3)[C@H]3[C@H](NC(=O)c5ccc(CN6CCn7c(nnc7C(F)(F)F)C6)c(C(F)(F)F)c5)[C@H]3O4)ccnc2N1` [Compound 1.14], the values for the IC50 on B-Raf (V600E), on C-Raf (Y340D/Y341D) and at wild type B-Raf (setting [2]) were 20 nM, 1.7 nM and 20 nM, respectively.
In the case of `O=C1CCc2c(Oc3ccc4c(c3)[C@H]3[C@H](NC(=O)c5ccc(F)cc5)[C@H]3O4)ccnc2N1` [Compound 1.36], the IC50 worked out at 1.4 nM at B-Raf (V600E), 93 nM against WT EGFR kinase domain, 60 nM at EGFR L858R kinase domain and 538 nM in test [1]. Further, the “Braf-WT Km ATP, % at 100 nM” value on wild type B-Raf is 96% at 100 nM.
For `Cc1cccc(F)c1C(=O)N[C@@H]1[C@H]2Oc3ccc(Oc4ccnc5c4CCC(=O)N5)cc3[C@@H]12` [Compound 1.37] the same measures were 7.5 nM, 1240 nM, 529 nM, over 5000 nM and 80% at 100 nM.
For `O=C1CCc2c(Oc3ccc4c(c3)[C@H]3[C@H](NC(=O)c5ccccc5F)[C@H]3O4)ccnc2N1` [Compound 1.38] the same measures were 4.7 nM, 425 nM, 79 nM, 3190 nM and 84% at 100 nM.
For `O=C1CCc2c(Oc3ccc4c(c3)[C@H]3[C@H](NC(=O)c5ccc(F)c(F)c5)[C@H]3O4)ccnc2N1` [Compound 1.41] the same measures were 1.2 nM, 59 nM, 29 nM, 648 nM and 100% at 100 nM.
On to `O=C1CCc2c(Oc3ccc4c(c3)[C@H]3[C@H](NC(=O)c5ccc(C(F)(F)F)c(F)c5)[C@H]3O4)ccnc2N1` [Compound 1.42], for which the IC50 at B-Raf (V600E) was 9.2 nM. Besides, the “Braf-WT Km ATP, % at 100 nM” value at wild type B-Raf came to 102% at 100 nM.
`O=C1CCc2c(Oc3ccc4c(c3)[C@H]3[C@H](NC(=O)c5ccccc5C(F)(F)F)[C@H]3O4)ccnc2N1` [Compound 1.44]: the IC50 is 4.8 nM at B-Raf (V600E), 243 nM against WT EGFR kinase domain, 63 nM at EGFR L858R kinase domain and over 5000 nM in test [1]. Further, the “Braf-WT Km ATP, % at 100 nM” value on wild type B-Raf is listed as 93% at 100 nM.
For `O=C1CCc2c(Oc3ccc4c(c3)[C@H]3[C@H](NC(=O)c5cc(C(F)(F)F)ccn5)[C@H]3O4)ccnc2N1` [Compound 1.45, N-((1S,1aS,6bS)-5-((7-oxo-5,6,7,8-tetrahydro-1,8-naphthyridin-4-yl)oxy)-1a,6b-dihydro-1H-cyclopropa[b]benzofuran-1-yl)-4-(trifluoromethyl)picolinamide] the same measures were 3.1 nM, 8.5 nM, 5.4 nM, 104 nM and 101% at 100 nM.
As for `N#CC1(c2cccc(C(=O)N[C@@H]3[C@H]4Oc5ccc(Oc6ccnc7c6CCC(=O)N7)cc5[C@@H]34)c2)CC1` [Compound 1.46, 3-(1-cyanocyclopropyl)-N-((1S,1aS,6bS)-5-((7-oxo-5,6,7,8-tetrahydro-1,8-naphthyridin-4-yl)oxy)-1a,6b-dihydro-1H-cyclopropa[b]benzofuran-1-yl)benzamide], the IC50 at B-Raf (V600E) amounted to 2.5 nM; on wild type B-Raf (setting [2]), 1.4 nM; against WT EGFR kinase domain it was 85 nM; against EGFR L858R kinase domain, 52 nM; in test [1], 316 nM.
Consider `CN1CCC(Oc2ccc(C(=O)N[C@@H]3[C@H]4Oc5ccc(Oc6ccnc7c6CCC(=O)N7)cc5[C@@H]34)cc2C(F)(F)F)CC1` [Compound 1.51, 4-((1-methylpiperidin-4-yl)oxy)-N-((1S,1aS,6bS)-5-((7-oxo-5,6,7,8-tetrahydro-1,8-naphthyridin-4-yl)oxy)-1a,6b-dihydro-1H-cyclopropa[b]benzofuran-1-yl)-3-(trifluoromethyl)benzamide], for which the values for the IC50 on B-Raf (V600E), on C-Raf (Y340D/Y341D) and on wild type B-Raf (setting [2]) were 14 nM, 1.61 nM and 9.8 nM, respectively.
`O=C(/C=C/c1cccc(C(F)(F)F)c1)N[C@@H]1[C@H]2Oc3ccc(Oc4ccnc5c4CCC(=O)N5)cc3[C@@H]12` [Compound 1.53]: the IC50 on B-Raf (V600E) came to 16 nM; against WT EGFR kinase domain, 678 nM; on EGFR L858R kinase domain, 68 nM; in test [1], 1140 nM. Besides, the “Braf-WT Km ATP, % at 100 nM” value on wild type B-Raf came out at 86% at 100 nM.
For `O=C1CCc2c(Oc3ccc4c(c3)[C@H]3[C@H](NC(=O)c5ccc(-c6ccccc6)o5)[C@H]3O4)ccnc2N1` [Compound 1.54] the same measures were 4.9 nM, 326 nM, 152 nM, 757 nM and 93% at 100 nM.
Take `N[C@@H]1[C@H]2Oc3ccc(Oc4ccnc5c4CCC(=O)N5)cc3[C@@H]12` [Intermediate I, 5-(((1S,1aS,6bS)-1-amino-1a,6b-dihydro-1H-cyclopropa[b]benzofuran-5-yl)oxy)-3,4-dihydro-1,8-naphthyridin-2(1H)-one]: the IC50 stood at 2840 nM on B-Raf (V600E) and 277 nM at C-Raf (Y340D/Y341D). Besides, the “Braf-WT Km ATP, % at 100 nM” value on wild type B-Raf is listed as −2% at 100 nM.
